Data from BindingDB's records for PubMed 6248635 (Stanford University, 1980).
Several values for one entry are separate records, joined by “and”; a condition that tells them apart may be missing. Equal entries are not always repeated.

Experiments:
Beta-arrestin-1 = Beta-arrestin-1 (Oryctolagus cuniculus, UniProt Q95223)
Opioid receptor delta 1 = Opioid receptor delta 1 (Bos taurus, UniProt F1N083)
[1] = target: Delta-type opioid receptor (Mus musculus, UniProt P32300)
Chain of Delta-type opioid receptor (P32300 whole entry): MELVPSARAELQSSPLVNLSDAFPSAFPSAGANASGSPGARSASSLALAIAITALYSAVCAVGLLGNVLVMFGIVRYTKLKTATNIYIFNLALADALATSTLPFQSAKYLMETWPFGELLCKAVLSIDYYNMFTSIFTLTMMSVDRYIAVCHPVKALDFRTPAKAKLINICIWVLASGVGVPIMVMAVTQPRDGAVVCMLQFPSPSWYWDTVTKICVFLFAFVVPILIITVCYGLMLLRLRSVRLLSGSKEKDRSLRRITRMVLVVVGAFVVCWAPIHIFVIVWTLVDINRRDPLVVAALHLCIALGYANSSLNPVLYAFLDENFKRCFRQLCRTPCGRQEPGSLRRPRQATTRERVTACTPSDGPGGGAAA

Chain of Beta-arrestin-1 (Q95223 whole entry): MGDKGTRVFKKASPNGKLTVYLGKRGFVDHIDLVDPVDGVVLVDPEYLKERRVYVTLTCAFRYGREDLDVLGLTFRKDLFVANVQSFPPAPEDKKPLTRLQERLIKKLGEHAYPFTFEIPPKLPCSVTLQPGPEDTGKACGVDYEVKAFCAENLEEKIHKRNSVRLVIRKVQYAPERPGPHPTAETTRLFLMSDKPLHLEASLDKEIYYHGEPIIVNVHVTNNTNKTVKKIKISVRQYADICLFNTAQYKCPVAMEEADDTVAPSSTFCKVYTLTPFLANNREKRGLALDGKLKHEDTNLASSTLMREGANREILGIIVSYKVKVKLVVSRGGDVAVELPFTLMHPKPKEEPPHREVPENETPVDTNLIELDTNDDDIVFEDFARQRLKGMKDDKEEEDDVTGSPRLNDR
Chain of Opioid receptor delta 1 (F1N083 whole entry): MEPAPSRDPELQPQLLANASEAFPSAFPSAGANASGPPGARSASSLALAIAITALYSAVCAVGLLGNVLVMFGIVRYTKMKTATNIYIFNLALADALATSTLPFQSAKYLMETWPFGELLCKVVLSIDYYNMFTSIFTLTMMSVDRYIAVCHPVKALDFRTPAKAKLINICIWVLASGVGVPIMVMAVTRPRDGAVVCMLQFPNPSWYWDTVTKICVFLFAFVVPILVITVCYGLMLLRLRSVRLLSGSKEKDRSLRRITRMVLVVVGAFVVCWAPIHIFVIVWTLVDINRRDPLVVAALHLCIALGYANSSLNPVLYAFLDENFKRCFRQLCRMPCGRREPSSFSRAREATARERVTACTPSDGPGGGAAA

| Compound | Ki (Beta-arrestin-1) | Ki (Opioid receptor delta 1) | Ki [1] |
| --- | --- | --- | --- |
| CC(C)C[C@H](NC(=O)[C@H](Cc1ccccc1)NC(=O)CNC(=O)[C@@H](C)NC(=O)[C@@H](N)Cc1ccc(O)cc1)C(=O)O [DALLE] | 3.6 nM | 1.8 nM and 7.4 nM | – |
| CN1CC[C@]23c4c5ccc(O)c4O[C@H]2[C@@H](O)CCC3[C@H]1C5 (stereo partly drawn) [DIHYDROMORPHINE] | – | 38.1 nM and 35.6 nM | 127 nM |
| C=CCN1CC[C@]23c4c5ccc(O)c4O[C@H]2C(=O)CC[C@@]3(O)[C@H]1C5 [[17-(2,3-3H-2-propenyl)]-4,5a-epoxy-3,14-dihydroxymorphinan-6-one] | 67.4 nM | – | – |
| CC(C)C[C@@H](NC(=O)[C@H](Cc1ccccc1)NC(=O)CNC(=O)[C@@H](C)NC(=O)[C@@H](N)Cc1ccc(O)cc1)C(=O)O [[D-Ala2-D-Leu5]enkephalin] | – | 1.8 nM and 9.7 nM | – |
| H-YGGFMTSEKSQTPLVTLFKNAIVKNAHKKGQ-OH [Beta-Endorphin] | 21 nM | 14 nM and 58.1 nM | – |
